Assays:
[1] = cited from earlier work
[2] = USP #2 paddle dissolution test: release of active in pH 1.2 or pH 6.8 buffer; format: physicochemical; conditions: for total release of active (in words): CMCAB tablets (Formulations E17, E18, E20), pH 1.2
Protocol: The dissolution tests were done using a USP #2 calibrated apparatus Varian VK 7000 with Teflon paddles. The pills were added to 900 ml of USP 1.2 pH buffer or to 900 ml of USP pH 6.8 buffer. The buffer solutions had each been degassed at 41° C. through a 0.45 micron hydrophilic polypropylene filter and held under vacuum for an additional 5 minutes. After the solutions were added to the dissolution vessels, the solutions were held at 37.3° C. in the water bath for 30 minutes to achieve constant temperature, prior to the addition of the tablets. The tablets were weighted down with a Varian 3-pronged capsule weight. At the beginning of each run, the tablets were allowed to sink to the bottom of the 1000 ml vessel, the stirrers were turned on at 50 rpm and samples taken as a function of time, using polypropylene syringes. The samples were filtered through 0.45 micron filters and immediately analyzed for the amount of aspirin in the solution. The wavelength for measuring the amount of aspirin (salicylic acid acetate) at pH 1.2 was 279 nm, which was the wavelength for equivalent molar absorptivities for both salicylic acid and aspirin using a Varian UV-VIS Spectrophotometer and quartz absorption cells. Similarly, the wavelength used to measure the concentration of the aspirin in pH 6.8 buffer was 267 nm, which was the wavelength where the molar absorptivity for salicylic acid and aspirin are equivalent at pH 6.8. This allowed accurate measurement of the release rate profile without having to worry about the degradation of the aspirin to salicylic acid with time. Each set of experiments had appropriate standards for reference for quantitative analysis. In the cases where the samples contained Vitamin E-TPGS, HPLC with UV detection was done to analyze for aspirin and salicylic acid.
6.0069 g CMCAB was mixed with 1.4937 g Fexofenadine HCl and 10.7693 g ethanol. The clear solution was allowed to dry into a clear film. The amorphous compatible film was then ground in a SPEX™ liquid nitrogen Freezer Mill for 6 minutes at 75% maximum speed. Torpac Inc. #2 Gelatin capsules were filled with the powdered polymer blend and tested using a Varian VK7000 USP II dissolution device at pH 1.2 and pH 6.8. The dissolution results are shown in FIG. 24, which is a plot of fexofenadine released from CMCAB solid dispersion (y-axis) versus time (minutes, x-axis) for Formulation E24 in Example 4. […] By varying the way the carboxyalkyl cellulose ester is mixed with the active, the rate of release can be varied so that one can achieve near zero order release of the active over a long period of time.

Compound | water solubility [1] | pH dependence of release ([2]; CMCAB tablet (Formulation E22), pH 1.2 versus pH 6.8) | duration of near zero order release ([2]; CMCAB tablet at 25% active (Formulation E22)) | total release of active (in words) [2]
OC(Cn1cncn1)(Cn1cncn1)c1ccc(F)cc1F [fluconazole] | highly water soluble | little pH dependence | up to 500 minutes | –
COc1cc(Cc2cnc(N)nc2N)cc(OC)c1OC [trimethoprim] | – | – | – | low total release
Cc1nnc(NS(=O)(=O)c2ccc(N)cc2)s1 [sulfamethizole] | – | – | – | low total release
CC(C)Cc1ccc(C(C)C(=O)O)cc1 (stereo not drawn) [ibuprofen] | – | – | – | low total release

Reference: patent US20070104787A1, “Carboxyalkyl cellulose esters for sustained delivery of pharmaceutically active substances” (priority 2005, published 2007)
